# Test results taken from publication PMC7155171, “Probing the Open Global Health Chemical Diversity Library for Multistage-Active Starting Points for Next-Generation Antimalarials” (ACS Infectious Diseases, 2020).
# Read-outs that look alike come from different tables or passages of the source.
# Tests used:
# [1] = system: P. falciparum (NF54) stage V gametocytes; test: Stage V gametocyte viability assay (MitoTracker Red CMXRos high content imaging); assay type: cell-based, Plasmodium falciparum; conditions: Plasmodium falciparum; for inhibition at 2 µM: read-out: Stg V Gam primary screen: Inhibition % (2uM) (n=2)
# [2] = system: HepG2-A16-CD81 hepatocytes; test: HepG2 cytotoxicity screening (CellTiter-Glo); conditions: for HepG2 cytotoxicity 12pt dose response: Maximum inhibition (%): 12pt dose response
# [3] = HepG2 cytotoxicity screening (CellTiter-Glo); conditions: human, uninfected HepG2-A16-CD81 (EGFP) hepatocytes
# [4] = target: recombinant firefly luciferase (Photinus pyralis, UniProt P08659); test: biochemical; conditions: dose response; for Emax: maximum inhibition, read-out: rLuc inhibition dose response: Maximum inhibition (%); for IC50: read-out: rLuc inhibition dose response: IC50
# Sequence of recombinant firefly luciferase (P08659 whole entry): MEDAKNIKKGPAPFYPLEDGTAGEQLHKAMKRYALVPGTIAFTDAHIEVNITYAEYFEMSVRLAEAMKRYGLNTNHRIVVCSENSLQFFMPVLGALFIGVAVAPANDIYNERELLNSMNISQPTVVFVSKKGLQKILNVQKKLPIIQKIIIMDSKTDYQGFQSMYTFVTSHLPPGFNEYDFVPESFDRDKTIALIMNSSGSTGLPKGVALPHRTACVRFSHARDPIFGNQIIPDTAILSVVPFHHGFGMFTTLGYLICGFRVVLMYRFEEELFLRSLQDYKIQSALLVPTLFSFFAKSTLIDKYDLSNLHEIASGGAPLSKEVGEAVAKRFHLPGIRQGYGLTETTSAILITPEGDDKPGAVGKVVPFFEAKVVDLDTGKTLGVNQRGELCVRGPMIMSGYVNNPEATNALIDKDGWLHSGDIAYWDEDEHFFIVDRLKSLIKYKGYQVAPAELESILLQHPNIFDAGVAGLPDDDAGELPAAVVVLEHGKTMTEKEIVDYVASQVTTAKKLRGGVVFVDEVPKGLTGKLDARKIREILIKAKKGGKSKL
# [5] = system: P. berghei liver stage (PbLuc); test: P. berghei luciferase liver stage (PbLuc) assay in HepG2-A16-CD81 hepatocytes; assay type: cell-based, Plasmodium berghei; conditions: Plasmodium berghei; for IC50: HepG2-A16-CD81, 12pt dose response, read-out: PbLuc 12pt dose response: IC50; for Emax: HepG2-A16-CD81, 48 h, 12pt dose response, maximum inhibition
# [6] = NF54, read-out: Stg V Gam dose response IC50 (µM) (n=3), 10-point dose response, n=3, 72 h
# [7] = NF54, 72 h, read-out: Stg V Gam dose response IC50 (µM) (n=3), 10-point dose response, n=3, 72 h
# [8] = NF54, 72 h, read-out: GAM V IC50, stage V gametocytes, 72 h
Compound,"IC50 [1, 7] [µM]","inhibition at 2 µM ([1]; NF54, 72 h) [%]",other results
"CCCc1nc2c(c(C)c(C)n2CCN(C)C)c(N)c1CC [DDD01026700, CCCC1=C(CC)C(N)=C2C(C)=C(C)N(CCN(C)C)C2=N1]",,,"IC50 [1, 6]: 0.97 µM; inhibition at 2 µM ([1]; NF54, Table S6, 2uM, n=2, 72 h): 49.2%"
"CCc1c(-c2ccccc2)nc2c(c(C)c(C)n2CCN(C)C)c1N [DDD01026714, CCC1=C(N=C2N(CCN(C)C)C(C)=C(C)C2=C1N)C1=CC=CC=C1]",0.868,56.1,
"CC(C)Nc1nc2c(c(NC3CC3)n1)CCN(C1CCOCC1)CC2 [DDD01029612, CC(C)NC1=NC2=C(CCN(CC2)C2CCOCC2)C(NC2CC2)=N1]",4.48,57,
"Cc1cccc(CN2Cc3[nH]nc(COCCO)c3C2)n1 [DDD01030906, CC1=CC=CC(CN2CC3=C(C2)C(COCCO)=NN3)=N1]",1.47,82.1,
"CC(C)Nc1nc2c(c(NC3CC3)n1)CCN(Cc1nccn1C)CC2 [DDD01031405, CC(C)NC1=NC2=C(CCN(CC3=NC=CN3C)CC2)C(NC2CC2)=N1]",2.65,58.7,
"Cc1cccc(CN2C[C@@H]3COC[C@H](NS(C)(=O)=O)[C@@H]3C2)n1 [DDD01032715, CC1=CC=CC(CN2C[C@@H]3COC[C@H](NS(C)(=O)=O)[C@@H]3C2)=N1]",,,"IC50 [1, 6]: 1.54 µM; inhibition at 2 µM ([1]; NF54, Table S6, 2uM, n=2, 72 h): 70.6%"
"Cc1cccc(CN2CCC3(CCN(c4cccnc4)C3=O)C2)n1 (stereo not shown) [DDD01033290, CC1=CC=CC(CN2CCC3(CCN(C3=O)C3=CC=CN=C3)C2)=N1]",,,"IC50 [1, 6]: 0.46 µM; inhibition at 2 µM ([1]; NF54, Table S6, 2uM, n=2, 72 h): 75.8%"
"CO[C@H]1CCN(Cc2cccc(C)n2)[C@@H]2CN(Cc3cccnc3)C[C@H]12 [DDD01036932, CO[C@H]1CCN(CC2=CC=CC(C)=N2)[C@@H]2CN(CC3=CC=CN=C3)C[C@H]12]",0.276,78.9,
"Cc1cc(C)n(C2=NC(NCCC(C)C)c3c(sc4c3CCCC4)N2)n1 (stereo not shown) [DDD01037468, CC(C)CCNC1N=C(NC2=C1C1=C(CCCC1)S2)N1N=C(C)C=C1C]",> 10,,
"Cc1cc(C)n(C2=NC(NCCCO)c3c(sc4c3CCCC4)N2)n1 (stereo not shown) [DDD01037469, CC1=NN(C(C)=C1)C1=NC(NCCCO)C2=C(N1)SC1=C2CCCC1]",0.39,91.5,
"c1ccc(CCN2CCCC2c2cccc(Nc3nccs3)n2)cc1 (stereo not shown) [DDD01056785, C(CC1=CC=CC=C1)N1CCCC1C1=CC=CC(NC2=NC=CS2)=N1]",0.392,73.4,"IC50 [1, 8]: 0.39 µM"
"Cc1cnc(Nc2cccc(C3CCCN3Cc3cn(C)nc3C)n2)s1 (stereo not shown) [DDD01056825, CN1C=C(CN2CCCC2C2=NC(NC3=NC=C(C)S3)=CC=C2)C(C)=N1]",0.095,85.8,"IC50 [1, 8]: 0.09 µM"
"Cc1ccccc1CN1CCCC1c1cccc(Nc2nccs2)n1 (stereo not shown) [DDD01057017, CC1=CC=CC=C1CN1CCCC1C1=CC=CC(NC2=NC=CS2)=N1]",0.261,,"IC50 [1, 8]: 0.26 µM"
"Cc1nn(C)cc1CN1CCCC1c1cccc(Nc2nccs2)n1 (stereo not shown) [DDD01057079, CN1C=C(CN2CCCC2C2=CC=CC(NC3=NC=CS3)=N2)C(C)=N1]",0.578,84.4,"IC50 [1, 8]: 0.58 µM"
"COc1cccc(CN2CCCC2c2cncc(Nc3nncs3)n2)c1 (stereo not shown) [DDD01058609, COC1=CC=CC(CN2CCCC2C2=CN=CC(NC3=NN=CS3)=N2)=C1]",0.534,63.5,"IC50 [1, 8]: 0.53 µM"
"Cc1cccc(CN2CCCC2c2cncc(Nc3nncs3)n2)c1 (stereo not shown) [DDD01058843, CC1=CC=CC(CN2CCCC2C2=CN=CC(NC3=NN=CS3)=N2)=C1]",0.319,78.8,"IC50 [1, 8]: 0.32 µM"
"Cc1cccc(CNC(Cc2ccsc2)c2nc(C)c(C)s2)n1 (stereo not shown) [DDD01059048, CC1=C(C)N=C(S1)C(CC1=CSC=C1)NCC1=CC=CC(C)=N1]",3.9,65.3,
"Cc1nc(Nc2ncccn2)cc(C2CCCN2CC(C)C)n1 (stereo not shown) [DDD01061131, CC(C)CN1CCCC1C1=CC(NC2=NC=CC=N2)=NC(C)=N1]",6.69,66.6,
"Cn1cccc1CNCC1CCCn2cc(C(C)(C)C)nc21 (stereo not shown) [DDD01062585, CN1C=CC=C1CNCC1CCCN2C=C(N=C12)C(C)(C)C]",0.741,74,"IC50 [1, 8]: 0.74 µM"
"CC(C)(C)c1cn2c(n1)C(CNCc1cnn3ccccc13)CCC2 (stereo not shown) [DDD01062586, CC(C)(C)C1=CN2CCCC(CNCC3=C4C=CC=CN4N=C3)C2=N1]",0.11,84.4,
"Cc1cn2c(n1)C(CNCc1cccc3c1OCO3)CCC2 (stereo not shown) [DDD01073293, CC1=CN2CCCC(CNCC3=CC=CC4=C3OCO4)C2=N1]",1.62,66.7,

Compound,"IC50 [1, 7] [µM]","inhibition at 2 µM ([1]; NF54, 72 h) [%]",other results
"CN(C)c1nc(N)nc(CN2CCCC2c2cccs2)n1 (stereo not shown) [DDD01075894, CN(C)C1=NC(N)=NC(CN2CCCC2C2=CC=CS2)=N1]",2.25,66,
"CC(C)N(CCNC(=O)c1[nH]nc2ccc(I)cc12)C(C)C [DDD01078603, CC(C)N(CCNC(=O)C1=C2C=C(I)C=CC2=NN1)C(C)C]",> 10,53.7,
"COc1c(C)cnc(CN(C)C2CCCCC2)c1C [DDD01078822, COC1=C(C)C=NC(CN(C)C2CCCCC2)=C1C]",1.45,84.8,
"O=C(CN1CCc2sccc2C1)Nc1ccnc2ccnn12 [DDD01078865, O=C(CN1CCC2=C(C1)C=CS2)NC1=CC=NC2=CC=NN12]",0.116,96.4,
"CN1CCC(NCC(O)c2cccc(OCc3ccccc3)c2)CC1 (stereo not shown) [DDD01079164, CN1CCC(CC1)NCC(O)C1=CC=CC(OCC2=CC=CC=C2)=C1]",6.06,53.3,
"Cc1cccc(CN2CCCn3c(nnc3Cn3cccn3)C2)n1 [DDD01084631, CC1=CC=CC(CN2CCCN3C(CN4C=CC=N4)=NN=C3C2)=N1]",1.04,51.5,
"O=C(C1CC2(CCNCC2)CN1)N1CCN(c2cccc(Cl)c2Cl)CC1 (stereo not shown) [DDD01243908, ClC1=CC=CC(N2CCN(CC2)C(=O)C2CC3(CN2)CCNCC3)=C1Cl]",4.94,52.8,
"COCC(C)NCc1nc(-c2ccc(C)cc2)c(-c2ccccn2)[nH]1 (stereo not shown) [DDD01244737, COCC(C)NCC1=NC(=C(N1)C1=CC=C(C)C=C1)C1=CC=CC=N1]",1.64,72.4,"IC50 [1, 8]: 1.64 µM"
"Fc1ccc2[nH]c(C3CCCN3Cc3c[nH]cn3)nc2c1 (stereo not shown) [DDD01245473, FC1=CC=C2N=C(NC2=C1)C1CCCN1CC1=CN=CN1]",1.88,53.9,
"CCSCC(C)NCc1cn2ccccc2n1 (stereo not shown) [DDD01245879, CCSCC(C)NCC1=CN2C=CC=CC2=N1]",1.71,74,
"CC(c1cccs1)N(C)Cc1cnc(-c2ccccn2)nc1 (stereo not shown) [DDD01246628, CC(N(C)CC1=CN=C(N=C1)C1=CC=CC=N1)C1=CC=CS1]",0.293,81.7,
"Cc1ccc2nc(CN(C)Cc3n[nH]c4c3CCCCC4)[nH]c2c1C [DDD01247714, CN(CC1=NC2=CC=C(C)C(C)=C2N1)CC1=C2CCCCCC2=NN1]",1.62,89.8,
"CNc1cc(C)nc(NCc2cc(C)cc3c(C)c(C)[nH]c23)n1 [DDD01248198, CNC1=CC(C)=NC(NCC2=C3NC(C)=C(C)C3=CC(C)=C2)=N1]",0.791,70.7,"IC50 [1, 8]: 0.79 µM"
"COCc1noc(-c2ccc(N(C)Cc3ncccc3C)nc2)n1 [DDD01248427, COCC1=NOC(=N1)C1=CC=C(N=C1)N(C)CC1=NC=CC=C1C]",1.02,58.1,
COc1c(C)cnc(CN2CCC(N(C)C(C)C(N)=O)CC2)c1C (stereo not shown) [UCSD-0844796],,,HepG2 Cytotoxicity primary screen (2uM): % Inhibition [2]: 1.63%; HepG2 cytotoxicity 12pt dose response: Maximum inhibition (%) [2]: -0.307%; IC50 [3]: > 25000 nM; Emax [4]: -2.93%; IC50 [4]: > 25000 nM; IC50 [5]: 11700 nM; Emax [5]: 87.4%
Cc1noc(NC(=O)c2ccc(OC(F)(F)F)cc2)n1 [UCSD-0844950],,,HepG2 cytotoxicity 12pt dose response: Maximum inhibition (%) [2]: 50.3%; IC50 [3]: 23700 nM; inhibition at 2 µM [3]: 4.58%; Emax [4]: 29.1%; IC50 [4]: > 25000 nM; IC50 [5]: 8230 nM; Emax [5]: 93.2%
Cc1noc(NC(=O)c2ccc(Br)s2)n1 [UCSD-0844983],,,HepG2 Cytotoxicity primary screen (2uM): % Inhibition [2]: 5.11%; HepG2 cytotoxicity 12pt dose response: Maximum inhibition (%) [2]: 28.5%; IC50 [3]: > 25000 nM; Emax [4]: -1.54%; IC50 [4]: > 25000 nM; IC50 [5]: 14700 nM; Emax [5]: 88.4%
CC(C)N(CC(N)=O)Cc1csc(COc2ccc(F)cc2)n1 [UCSD-0845986],,,HepG2 Cytotoxicity primary screen (2uM): % Inhibition [2]: 6.02%; HepG2 cytotoxicity 12pt dose response: Maximum inhibition (%) [2]: 68.7%; IC50 [3]: 23100 nM; Emax [4]: 5.14%; IC50 [4]: > 25000 nM; IC50 [5]: 14600 nM; Emax [5]: 97.4%
Cc1cc(CN2CCN(C(c3ccccc3)c3ccccc3)CC2)no1 [UCSD-0846071],,,HepG2 cytotoxicity 12pt dose response: Maximum inhibition (%) [2]: 4.68%; IC50 [3]: > 25000 nM; inhibition at 2 µM [3]: 0.21%; Emax [4]: 14.1%; IC50 [4]: > 25000 nM; IC50 [5]: 8970 nM; Emax [5]: 104%
Cc1ccoc1C(=O)NC1CCN(Cc2csc3c(F)cccc23)CC1 [UCSD-0846562],,,HepG2 Cytotoxicity primary screen (2uM): % Inhibition [2]: -2.96%; HepG2 cytotoxicity 12pt dose response: Maximum inhibition (%) [2]: 25.1%; IC50 [3]: > 25000 nM; Emax [4]: 3.24%; IC50 [4]: > 25000 nM; IC50 [5]: 11100 nM
